Results: ChEMBL document CHEMBL1201862, “PubChem BioAssay data set” (2004)
Where “and” joins values, the source holds several entries; their conditions need not be identical. Identical values can stand only once.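 Values below derive from 48-hour exposures of cells grown in 96-well plates, with endpoints linearly interpolated between the two concentrations bracketing the appropriate inhibition level. At the GI50, growth is halved.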 Calls of active or inactive are those of the source. Rule as the data show it: active = GI50 up to about 1.1 µM and inactive = higher.

What was measured:
Test in all cases: growth of human tumour cells (NCI), 48 h
[1] = test system: UACC-62
[2] = test system: SF-539
[3] = test system: CAKI-1
[4] = test system: A498
[5] = test system: TK-10
[6] = test system: HT-29
[7] = test system: XF498
[8] = test system: MCF7
[9] = test system: DU-145
[10] = test system: MDA-MB-435
[11] = test system: NCI/ADR-RES
[12] = test system: EKVX
[13] = test system: CCRF-CEM
[14] = test system: HOP-92
[15] = test system: K562
[16] = test system: Malme-3M
[17] = test system: NCI-H522
[18] = test system: HL-60
[19] = test system: DMS-273
[20] = test system: SNB-75
[21] = test system: BT-549
[22] = test system: UO-31
[23] = test system: 786-0
[24] = test system: KM-20L2
[25] = test system: MDA-MB-231
[26] = test system: M14
[27] = test system: PC-3
[28] = test system: IGROV-1
[29] = test system: HOP-62
[30] = test system: OVCAR-8
[31] = test system: DMS-114
[32] = test system: SK-MEL-5
[33] = test system: SNB-19
[34] = test system: SK-OV-3
[35] = test system: SW-620
[36] = test system: RPMI-8226
[37] = test system: DLD-1
[38] = test system: SF-295
[39] = test system: A549
[40] = test system: SF-268
[41] = test system: MOLT-4
[42] = test system: ACHN
[43] = test system: MDA-N
[44] = test system: LXFL 529
[45] = test system: Hs-578T
[46] = test system: HCT-116
[47] = test system: SR
[48] = test system: RXF 393
[49] = test system: NCI-H460
[50] = test system: HOP-18
[51] = test system: KM12
[52] = test system: NCI-H23
[53] = test system: HCC 2998
[54] = test system: SK-MEL-2
[55] = test system: LOX IMVI
[56] = test system: M19-MEL
[57] = test system: SN12C
[58] = test system: HCT-15
[59] = test system: COLO 205
[60] = test system: SNB-78
[61] = test system: T47D
[62] = test system: SK-MEL-28
[63] = test system: OVCAR-3
[64] = test system: NCI-H226
[65] = test system: OVCAR-5
[66] = test system: U-251
[67] = test system: UACC-257
[68] = test system: OVCAR-4

In the case of COc1ccc(/N=C\c2ccc(N(CCC#N)CCC#N)cc2)cc1, the GI50 [1] is reported as 16.6 µM (inactive), the GI50 [2] is reported as 27.9 µM (inactive) and the GI50 [3] is reported as 69.2 µM (inactive). The GI50 [4] was > 100 µM (inactive), the GI50 [5] was 64.1 µM (inactive) and the GI50 [6] was > 67.6 µM (inactive). The GI50 [7] was > 100 µM (inactive), the GI50 [8] was > 100 µM (inactive) and the GI50 [9] was > 100 µM (inactive). For the same molecule, the GI50 [10] was 32.8 µM (inactive), the GI50 [11] was > 100 µM (inactive) and the GI50 [12] was > 100 µM (inactive). The GI50 [13] was 48.1 µM (inactive), the GI50 [14] was 99.3 µM (inactive) and the GI50 [15] was 7.62 µM (inactive). For the same molecule, the GI50 [16] was > 84.9 µM (inactive), the GI50 [17] was > 95.1 µM (inactive) and the GI50 [18] was 22.3 µM (inactive). For the same molecule, the GI50 [19] was 31.4 µM (inactive), the GI50 [20] was > 100 µM (inactive) and the GI50 [21] was > 38.9 µM (inactive). For the same molecule, the GI50 [22] was 44.5 µM (inactive), the GI50 [23] was 52.2 µM (inactive) and the GI50 [24] was 9.68 µM (inactive). For the same molecule, the GI50 [25] was > 100 µM (inactive), the GI50 [26] was 28.1 µM (inactive) and the GI50 [27] was 47 µM (inactive). The GI50 [28] was 82 µM (inactive), the GI50 [29] was > 56.2 µM (inactive) and the GI50 [30] was 74.6 µM (inactive). The GI50 [31] was 27.5 µM (inactive), the GI50 [32] was 40.4 µM (inactive) and the GI50 [33] was 90.2 µM (inactive). For the same molecule, the GI50 [34] was > 100 µM (inactive), the GI50 [35] was 61.1 µM (inactive) and the GI50 [36] was 59 µM (inactive). For the same molecule, the GI50 [37] was 24.9 µM (inactive), the GI50 [38] was 54.1 µM (inactive) and the GI50 [39] was 47.9 µM (inactive). The GI50 [40] was 53.2 µM (inactive), the GI50 [41] was 66.5 µM (inactive) and the GI50 [42] was 26.7 µM (inactive). For the same molecule, the GI50 [43] was 63.8 µM (inactive), the GI50 [44] was 7.11 µM (inactive) and the GI50 [45] was > 100 µM (inactive). For the same molecule, the GI50 [46] was 63.8 µM (inactive), the GI50 [47] was 90.8 µM (inactive) and the GI50 [48] was > 78.5 µM (inactive). The GI50 [49] was 43.1 µM (inactive), the GI50 [50] was > 100 µM (inactive) and the GI50 [51] was 17.1 µM (inactive). For the same molecule, the GI50 [52] was > 100 µM (inactive), the GI50 [53] was 38.8 µM (inactive) and the GI50 [54] was > 67.1 µM (inactive). For the same molecule, the GI50 [55] was > 28.9 µM (inactive), the GI50 [56] was 34.1 µM (inactive) and the GI50 [57] was > 89.3 µM (inactive). For the same molecule, the GI50 [58] was 17.4 µM, the GI50 [59] was 44.2 µM (inactive) and the GI50 [60] was > 100 µM (inactive). For the same molecule, the GI50 [61] was > 100 µM (inactive), the GI50 [62] was > 81.1 µM (inactive) and the GI50 [63] was 78.3 µM (inactive). The GI50 [64] was > 100 µM (inactive), the GI50 [65] was 55.5 µM (inactive) and the GI50 [66] was > 83.2 µM (inactive). The GI50 [67] was > 100 µM (inactive) and the GI50 [68] was > 86.1 µM (inactive).
CN(C)CCNC(=O)c1cccc2cc([N+](=O)[O-])ccc12 was tested, and the GI50 [3] was 0.519 µM (active), the GI50 [7] was 0.252 µM (active) and the GI50 [8] was 0.608 µM (active). For the same molecule, the GI50 [9] was 2.86 µM (inactive), the GI50 [10] was 2.23 µM (inactive) and the GI50 [11] was 1.39 µM (inactive). The GI50 [14] was 0.249 µM (active), the GI50 [17] was 0.685 µM (active) and the GI50 [19] was 0.123 µM (active). For the same molecule, the GI50 [21] was 3.56 µM (inactive), the GI50 [24] was 0.111 µM (active) and the GI50 [25] was 1.34 µM (inactive). For the same molecule, the GI50 [27] was 0.76 µM (active), the GI50 [31] was 0.217 µM (active) and the GI50 [36] was 183 nM (active) and 262 nM (active). The GI50 [37] was 0.217 µM (active), the GI50 [43] was 1.98 µM (inactive) and the GI50 [44] was 0.271 µM (active). The GI50 [45] was 1.46 µM (inactive), the GI50 [48] was 0.0649 µM (active) and the GI50 [50] was 0.697 µM (active). The GI50 [56] was 0.279 µM (active), the GI50 [60] was 0.22 µM (active) and the GI50 [61] was 2.79 µM (inactive). The GI50 [67] was 0.243 µM (active).
